The target in assay [1] is 1-phosphatidylinositol 3-phosphate 5-kinase (Homo sapiens) (UniProt Q9Y2I7). As to the kind of experiment: Inhibition of PIKFYVE (unknown origin) assessed as residual activity at 1000 nM by KINOMEscan analysis relative to control.
Assay [2] has as its target Dual specificity mitogen-activated protein kinase kinase 2 (Homo sapiens) (UniProt P36507). As to the kind of experiment: Inhibition of MEK2 (unknown origin) assessed as residual activity at 100 nM by KINOMEscan analysis relative to control.
Assay [3] deals with Serine/threonine-protein kinase mTOR (Homo sapiens) (UniProt P42345). The assay can be described thus: Inhibition of MTOR (unknown origin) assessed as residual activity at 100 nM by KINOMEscan analysis relative to control.
Assay [4] has as its target T1, Phosphatidylinositol 3-kinase C2 domain-containing subunit gamma (Homo sapiens) (UniProt O75747).
T1 sequence (whole entry): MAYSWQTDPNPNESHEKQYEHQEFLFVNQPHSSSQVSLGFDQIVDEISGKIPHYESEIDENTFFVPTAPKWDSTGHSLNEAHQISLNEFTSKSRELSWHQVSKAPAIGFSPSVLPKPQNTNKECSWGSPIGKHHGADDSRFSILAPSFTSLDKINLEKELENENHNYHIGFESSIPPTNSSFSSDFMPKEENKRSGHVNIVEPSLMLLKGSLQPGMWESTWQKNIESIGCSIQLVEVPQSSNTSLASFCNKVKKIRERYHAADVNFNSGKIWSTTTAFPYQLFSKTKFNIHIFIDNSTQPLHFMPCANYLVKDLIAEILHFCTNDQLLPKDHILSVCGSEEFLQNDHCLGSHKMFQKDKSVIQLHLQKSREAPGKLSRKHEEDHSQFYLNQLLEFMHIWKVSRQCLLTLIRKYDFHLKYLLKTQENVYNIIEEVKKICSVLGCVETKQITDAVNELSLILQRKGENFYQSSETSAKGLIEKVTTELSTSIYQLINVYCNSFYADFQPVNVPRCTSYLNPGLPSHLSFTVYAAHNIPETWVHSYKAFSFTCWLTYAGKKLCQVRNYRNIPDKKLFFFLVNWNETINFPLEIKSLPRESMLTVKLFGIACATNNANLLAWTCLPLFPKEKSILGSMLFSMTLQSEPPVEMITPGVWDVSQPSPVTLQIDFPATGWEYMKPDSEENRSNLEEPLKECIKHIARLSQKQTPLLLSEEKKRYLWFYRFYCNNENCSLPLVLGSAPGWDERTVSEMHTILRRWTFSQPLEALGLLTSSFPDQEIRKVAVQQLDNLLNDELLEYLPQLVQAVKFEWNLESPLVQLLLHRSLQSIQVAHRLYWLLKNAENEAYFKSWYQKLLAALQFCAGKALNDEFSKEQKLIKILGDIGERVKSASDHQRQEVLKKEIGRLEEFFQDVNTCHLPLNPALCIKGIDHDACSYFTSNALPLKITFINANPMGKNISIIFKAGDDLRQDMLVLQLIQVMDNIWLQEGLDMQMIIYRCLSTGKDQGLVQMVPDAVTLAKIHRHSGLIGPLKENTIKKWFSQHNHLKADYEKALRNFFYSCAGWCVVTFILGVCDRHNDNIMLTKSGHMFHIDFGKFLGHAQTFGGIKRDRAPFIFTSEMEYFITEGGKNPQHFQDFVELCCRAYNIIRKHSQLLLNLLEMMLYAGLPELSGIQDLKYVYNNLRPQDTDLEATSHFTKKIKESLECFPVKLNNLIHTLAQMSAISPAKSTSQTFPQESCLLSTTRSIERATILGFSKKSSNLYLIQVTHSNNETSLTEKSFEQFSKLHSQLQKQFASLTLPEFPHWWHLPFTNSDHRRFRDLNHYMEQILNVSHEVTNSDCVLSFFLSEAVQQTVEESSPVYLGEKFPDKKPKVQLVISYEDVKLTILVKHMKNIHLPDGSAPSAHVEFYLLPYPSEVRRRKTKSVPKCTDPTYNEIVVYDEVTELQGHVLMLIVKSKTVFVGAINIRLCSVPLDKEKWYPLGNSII
The assay can be described thus: Inhibition of PIK3C2G (unknown origin) assessed as residual activity at 100 nM by KINOMEscan analysis relative to control.

In assay [5] the target is Cyclin-dependent kinase 2 homolog (Plasmodium falciparum (isolate K1 / Thailand)) (UniProt Q07785). As to the kind of experiment: Inhibition of Plasmodium falciparum PK5 assessed as residual activity at 100 nM by KINOMEscan analysis relative to control.
In assay [6] the target is Ribosomal protein S6 kinase alpha-6 (Homo sapiens) (UniProt Q9UK32). The assay can be described thus: Inhibition of N-terminal RSK4 […] domain 1 (unknown origin) assessed as residual activity at 100 nM by KINOMEscan analysis relative to control.
Assay [7] addresses Macrophage-stimulating protein receptor (Homo sapiens) (UniProt Q04912). As to the kind of experiment: Inhibition of MST1R (unknown origin) assessed as residual activity at 100 nM by KINOMEscan analysis relative to control.
Assay [8] has as its target T2, Receptor-interacting serine/threonine-protein kinase 4 (Homo sapiens) (UniProt P57078).
T2 sequence (whole entry): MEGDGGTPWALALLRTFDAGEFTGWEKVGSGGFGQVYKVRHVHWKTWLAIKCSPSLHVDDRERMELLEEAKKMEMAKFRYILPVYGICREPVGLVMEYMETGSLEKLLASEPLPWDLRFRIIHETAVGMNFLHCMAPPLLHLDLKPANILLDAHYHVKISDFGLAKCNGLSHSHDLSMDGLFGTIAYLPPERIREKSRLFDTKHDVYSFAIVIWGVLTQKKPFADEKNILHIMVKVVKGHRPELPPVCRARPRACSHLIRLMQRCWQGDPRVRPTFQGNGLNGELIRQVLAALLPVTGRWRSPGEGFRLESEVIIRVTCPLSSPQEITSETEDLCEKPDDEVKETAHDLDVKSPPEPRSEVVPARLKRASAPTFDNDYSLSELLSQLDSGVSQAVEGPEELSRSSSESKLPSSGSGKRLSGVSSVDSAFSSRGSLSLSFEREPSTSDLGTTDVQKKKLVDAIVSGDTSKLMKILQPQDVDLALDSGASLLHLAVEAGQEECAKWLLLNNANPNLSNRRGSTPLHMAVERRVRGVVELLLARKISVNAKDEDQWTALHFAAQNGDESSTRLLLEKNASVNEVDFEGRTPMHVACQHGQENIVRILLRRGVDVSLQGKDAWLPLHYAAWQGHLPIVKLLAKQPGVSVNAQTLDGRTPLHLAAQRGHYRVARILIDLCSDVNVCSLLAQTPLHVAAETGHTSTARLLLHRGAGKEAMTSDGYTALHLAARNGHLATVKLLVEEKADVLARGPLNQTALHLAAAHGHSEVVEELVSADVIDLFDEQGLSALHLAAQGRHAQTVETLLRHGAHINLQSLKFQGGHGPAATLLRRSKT
As to the kind of experiment: Inhibition of RIPK4 (unknown origin) assessed as residual activity at 100 nM by KINOMEscan analysis relative to control.

The target in assay [9] is Fibroblast growth factor receptor 1 (Homo sapiens) (UniProt P11362). The assay can be described thus: Inhibition of FGFR1 (unknown origin) assessed as residual activity at 100 nM by KINOMEscan analysis relative to control.
Chain of Fibroblast growth factor receptor 1 (Homo sapiens) (P11362 22-822 limits assumed): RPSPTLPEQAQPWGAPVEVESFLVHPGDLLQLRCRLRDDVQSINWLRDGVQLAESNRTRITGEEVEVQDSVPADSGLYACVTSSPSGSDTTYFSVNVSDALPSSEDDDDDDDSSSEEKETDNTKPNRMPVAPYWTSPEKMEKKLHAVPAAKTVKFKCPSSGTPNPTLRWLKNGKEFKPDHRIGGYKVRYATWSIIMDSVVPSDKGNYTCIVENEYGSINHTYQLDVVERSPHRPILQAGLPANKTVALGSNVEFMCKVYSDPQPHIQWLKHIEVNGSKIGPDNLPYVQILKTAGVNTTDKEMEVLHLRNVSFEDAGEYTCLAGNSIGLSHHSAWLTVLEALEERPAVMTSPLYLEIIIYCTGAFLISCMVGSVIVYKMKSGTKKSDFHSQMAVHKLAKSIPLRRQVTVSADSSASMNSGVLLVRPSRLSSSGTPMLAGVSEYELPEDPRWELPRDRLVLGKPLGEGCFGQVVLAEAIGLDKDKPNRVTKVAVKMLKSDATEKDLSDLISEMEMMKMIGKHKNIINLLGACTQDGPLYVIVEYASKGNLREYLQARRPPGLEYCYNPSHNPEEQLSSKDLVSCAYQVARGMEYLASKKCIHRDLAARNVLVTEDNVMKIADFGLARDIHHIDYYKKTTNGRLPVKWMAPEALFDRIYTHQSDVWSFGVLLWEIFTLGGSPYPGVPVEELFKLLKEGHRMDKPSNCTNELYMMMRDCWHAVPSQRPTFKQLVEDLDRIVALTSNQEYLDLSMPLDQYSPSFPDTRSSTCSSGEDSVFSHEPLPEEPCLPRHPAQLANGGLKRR

Chain of Ribosomal protein S6 kinase alpha-6 (Homo sapiens) (Q9UK32 whole entry): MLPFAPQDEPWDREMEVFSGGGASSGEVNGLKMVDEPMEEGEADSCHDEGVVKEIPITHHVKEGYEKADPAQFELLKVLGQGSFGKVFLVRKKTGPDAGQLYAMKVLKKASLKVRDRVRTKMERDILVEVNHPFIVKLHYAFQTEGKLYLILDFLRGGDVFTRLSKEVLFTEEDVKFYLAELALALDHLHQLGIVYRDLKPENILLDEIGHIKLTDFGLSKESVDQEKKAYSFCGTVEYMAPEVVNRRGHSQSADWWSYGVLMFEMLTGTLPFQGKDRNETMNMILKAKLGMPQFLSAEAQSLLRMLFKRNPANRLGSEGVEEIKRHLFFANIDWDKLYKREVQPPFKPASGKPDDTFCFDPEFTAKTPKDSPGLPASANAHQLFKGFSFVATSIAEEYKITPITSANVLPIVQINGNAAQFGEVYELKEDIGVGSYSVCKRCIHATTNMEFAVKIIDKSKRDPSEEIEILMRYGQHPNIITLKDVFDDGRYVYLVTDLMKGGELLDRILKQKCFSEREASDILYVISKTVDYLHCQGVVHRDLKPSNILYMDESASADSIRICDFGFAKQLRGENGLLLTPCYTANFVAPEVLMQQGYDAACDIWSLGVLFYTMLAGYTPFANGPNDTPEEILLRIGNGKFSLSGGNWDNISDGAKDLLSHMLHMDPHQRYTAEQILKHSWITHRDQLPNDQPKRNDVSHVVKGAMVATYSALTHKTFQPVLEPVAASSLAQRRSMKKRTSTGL
Chain of Cyclin-dependent kinase 2 homolog (Plasmodium falciparum (isolate K1 / Thailand)) (Q07785 whole entry): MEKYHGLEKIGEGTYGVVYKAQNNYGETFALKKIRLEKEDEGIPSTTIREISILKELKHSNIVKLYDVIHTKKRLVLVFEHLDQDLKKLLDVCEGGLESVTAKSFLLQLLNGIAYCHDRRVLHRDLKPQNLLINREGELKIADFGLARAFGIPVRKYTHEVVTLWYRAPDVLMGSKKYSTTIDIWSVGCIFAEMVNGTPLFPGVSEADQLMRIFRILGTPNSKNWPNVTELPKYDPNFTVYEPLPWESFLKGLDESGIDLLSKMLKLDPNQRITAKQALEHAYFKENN
Chain of Macrophage-stimulating protein receptor (Homo sapiens) (Q04912 25-304 limits assumed): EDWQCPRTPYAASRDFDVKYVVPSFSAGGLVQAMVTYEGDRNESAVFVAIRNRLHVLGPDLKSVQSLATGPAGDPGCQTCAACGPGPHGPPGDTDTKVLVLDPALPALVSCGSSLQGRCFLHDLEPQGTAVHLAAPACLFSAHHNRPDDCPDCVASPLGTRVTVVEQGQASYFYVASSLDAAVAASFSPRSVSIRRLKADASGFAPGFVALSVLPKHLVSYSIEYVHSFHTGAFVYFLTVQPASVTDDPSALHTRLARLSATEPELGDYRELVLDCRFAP
Chain of Macrophage-stimulating protein receptor (Homo sapiens) (Q04912 310-1400 limits assumed): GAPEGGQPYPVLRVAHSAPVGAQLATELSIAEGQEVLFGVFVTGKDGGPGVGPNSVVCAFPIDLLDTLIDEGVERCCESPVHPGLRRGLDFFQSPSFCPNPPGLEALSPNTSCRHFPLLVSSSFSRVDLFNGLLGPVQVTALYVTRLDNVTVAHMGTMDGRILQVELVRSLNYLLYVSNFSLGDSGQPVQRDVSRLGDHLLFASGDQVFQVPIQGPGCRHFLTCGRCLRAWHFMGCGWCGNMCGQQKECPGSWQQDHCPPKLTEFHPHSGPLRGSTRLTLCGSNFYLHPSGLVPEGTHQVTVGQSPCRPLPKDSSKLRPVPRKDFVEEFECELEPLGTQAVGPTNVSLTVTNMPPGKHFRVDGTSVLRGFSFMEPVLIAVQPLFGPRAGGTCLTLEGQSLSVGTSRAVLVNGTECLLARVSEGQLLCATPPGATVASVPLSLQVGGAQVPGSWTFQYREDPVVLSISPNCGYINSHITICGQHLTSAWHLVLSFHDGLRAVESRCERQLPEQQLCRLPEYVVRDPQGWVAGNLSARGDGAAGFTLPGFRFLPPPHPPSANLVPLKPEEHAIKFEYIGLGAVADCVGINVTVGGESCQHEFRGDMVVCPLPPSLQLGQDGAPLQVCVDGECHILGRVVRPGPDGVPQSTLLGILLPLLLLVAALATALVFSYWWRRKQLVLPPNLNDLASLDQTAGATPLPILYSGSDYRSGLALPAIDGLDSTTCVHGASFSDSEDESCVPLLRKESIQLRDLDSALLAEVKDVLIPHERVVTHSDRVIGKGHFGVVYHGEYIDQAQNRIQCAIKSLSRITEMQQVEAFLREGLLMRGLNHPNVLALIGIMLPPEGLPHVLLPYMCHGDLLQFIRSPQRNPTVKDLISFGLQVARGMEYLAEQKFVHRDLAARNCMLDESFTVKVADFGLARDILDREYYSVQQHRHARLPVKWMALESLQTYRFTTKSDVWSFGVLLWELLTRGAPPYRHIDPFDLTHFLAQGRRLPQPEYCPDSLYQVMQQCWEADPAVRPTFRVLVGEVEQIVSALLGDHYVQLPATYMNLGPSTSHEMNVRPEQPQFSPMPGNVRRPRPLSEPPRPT
Chain of Dual specificity mitogen-activated protein kinase kinase 2 (Homo sapiens) (P36507 whole entry): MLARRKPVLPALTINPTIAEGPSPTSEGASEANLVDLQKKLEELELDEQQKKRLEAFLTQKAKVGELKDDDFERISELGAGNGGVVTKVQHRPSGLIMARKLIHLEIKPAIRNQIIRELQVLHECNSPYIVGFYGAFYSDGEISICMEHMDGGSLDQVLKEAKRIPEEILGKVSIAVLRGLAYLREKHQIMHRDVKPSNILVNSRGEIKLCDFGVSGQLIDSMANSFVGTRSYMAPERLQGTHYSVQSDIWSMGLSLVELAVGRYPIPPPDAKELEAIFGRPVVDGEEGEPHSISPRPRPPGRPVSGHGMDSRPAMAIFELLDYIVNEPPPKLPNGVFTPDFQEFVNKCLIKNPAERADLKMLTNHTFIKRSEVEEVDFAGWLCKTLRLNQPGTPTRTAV

For the molecule `COc1cc2nc(C)nc(N[C@H](C)c3cccc(-c4cn[nH]c4)c3)c2cc1OC`, in assay [1], the Activity amounted to 68%.

As for `COc1cc2ncnc(N[C@H](C)c3cccc4ccccc34)c2cc1OC`, the Activity in assay [2] was determined as 90%; in assay [3] it was 82%; in [4] it was 85%; in assay [5], 100%; in assay [6], 94%; in [7], 100%. The Activity was 77% in assay [8] and 100% in assay [9].

These data come from ChEMBL document CHEMBL5678818, “Discovery of potent SOS1 inhibitors that block RAS activation via disruption of the RAS-SOS1 interaction” (Proc Natl Acad Sci U S A, 2019).
